{"source": "patent US20250213547A1", "about": "“METHODS OF TREATING NEUROLOGICAL DISEASES” (priority 2022, published 2025)", "conditions": "for Avg. CFBL 24HC / Max. CFBL 24HC: Table 34, ELEKTRA patients, steady-state; for Avg. Ch. f. BL. 24HC / Max. Red. f. BL. 24HC: Table 34A, ELEKTRA (TAK-935-2002)", "description": "Other inclusion criteria were body weight ≥10 kg, currently taking a fixed dosage of 1 to 4 antiseizure medications, and failure to remain seizure free after trying at least two antiseizure medications. Convulsive seizures include focal to bilateral tonic-clonic with impaired awareness, hemi-clonic, simultaneous bilateral clonic, and generalized tonic-clonic seizures. Drop seizures can involve the entire body, trunk, or head which leads to falling. […] Approximately 126 patients ages ≥2 and ≤17 years were enrolled in the study. The study included two main phases, a 4-6 week screening and baseline period, and a 20-week treatment period. Patients received doses twice a day in a tablet formulation. The starting dose was adjusted according to the patient's body weight (Table 17).\nDuring the first 8 weeks of treatment patient dosing was a titrated for individual optimization. The remaining 12-weeks of treatment consisted of a maintenance phase. The study began with treating patients ≥9 years of age for one month before treating younger patients. Blood was collected for PK analysis on the first dosage day within one hour of the morning dose, and 30 minutes, and 1, 2, 3, and 4 hours post-dose. Subsequent blood sampling took place before the morning dose and 30 minutes post-dose. Blood samples were obtained at scheduled times for determining PK profile and Tmax, which is the time Cmax was reached. A patient's seizure frequency was recorded before and during the trial to calculate percent change from baseline.\nThe PK model parameters can be used as a tool to estimate PK and drug exposure in an individual or a population (such as with ELEKTRA), as well as to calculate individualized dosing based on covariates. For example, optimal daily dosing can be calculated using the area under the concentration time curve and clearance values (dose=targetAUC24×CL). Blood sampling at steady-state was limited in the ELEKTRA study, thus some of the PK parameters shown in Table 32 for the ELEKTRA population were simulated by interpolation.\nThe dots represent the simulation and the numbers below the dot represent the simulated covariate value, while the values above the dots show the percent change from the reference level. The vertical line labeled “ref” depicts the reference level. […] The CV % refers to the coefficient of variation assuming a log-normal distribution, derived as […], where σ denotes the standard deviation of the log-transformed values.\nThe term AUC(0-tau) stands for AUC to the end of the dosing period. The covariate effects were analyzed using exposure parameters AUC, Cmax, and Ctrough.", "key": {"[1]": {"conditions": "Eq. Dose 100 mg (N = 70), Median"}, "[2]": {"conditions": "Eq. Dose 100 mg (N = 70), Range"}, "[3]": {"conditions": "Eq. Dose 200 mg (N = 68), Median"}, "[4]": {"conditions": "Eq. Dose 200 mg (N = 68), Range"}, "[5]": {"conditions": "Eq. Dose 300 mg (N = 56), Median"}, "[6]": {"conditions": "Eq. Dose 300 mg (N = 56), Range"}, "[7]": {"conditions": "Equiv. Dose 100 mg BID, N = 70, Mean"}, "[8]": {"conditions": "Equiv. Dose 100 mg BID, N = 70, Median"}, "[9]": {"conditions": "Equiv. Dose 100 mg BID, N = 70, Range"}, "[10]": {"conditions": "Equiv. Dose 200 mg BID, N = 68, Mean"}, "[11]": {"conditions": "Equiv. Dose 200 mg BID, N = 68, Median"}, "[12]": {"conditions": "Equiv. Dose 200 mg BID, N = 68, Range"}, "[13]": {"conditions": "Equiv. Dose 300 mg BID, N = 56, Mean"}, "[14]": {"conditions": "Equiv. Dose 300 mg BID, N = 56, Median"}, "[15]": {"conditions": "Equiv. Dose 300 mg BID, N = 56, Range"}}, "note": "Like-named read-outs stand apart in the source and are kept apart here.", "data": [{"molecule": "O=C(c1cccnc1-c1ccncc1)N1CCC(O)(Cc2ccccc2)CC1", "note": "[soticlestat]", "values": [{"measurement": "Avg. CFBL 24HC", "setting": "Eq. Dose 100 mg (N = 70), Mean", "value": "−69.4", "unit": "%"}, {"measurement": "Max. CFBL 24HC", "setting": "Eq. Dose 100 mg (N = 70), Mean", "value": "−69.6", "unit": "%"}, {"measurement": "Avg. CFBL 24HC", "setting": "[1]", "value": "−70.8", "unit": "%"}, {"measurement": "Max. CFBL 24HC", "setting": "[1]", "value": "−71", "unit": "%"}, {"measurement": "Avg. CFBL 24HC", "setting": "[2]", "value": "−86.9-−42.2%"}, {"measurement": "Max. CFBL 24HC", "setting": "[2]", "value": "−87-−42.6%"}, {"measurement": "Avg. CFBL 24HC", "setting": "Eq. Dose 200 mg (N = 68), Mean", "value": "−78.6", "unit": "%"}, {"measurement": "Max. CFBL 24HC", "setting": "Eq. Dose 200 mg (N = 68), Mean", "value": "−78.7", "unit": "%"}, {"measurement": "Avg. CFBL 24HC", "setting": "[3]", "value": "−80.7", "unit": "%"}, {"measurement": "Max. CFBL 24HC", "setting": "[3]", "value": "−80.8", "unit": "%"}, {"measurement": "Avg. CFBL 24HC", "setting": "[4]", "value": "−89.7-−54.7%"}, {"measurement": "Max. CFBL 24HC", "setting": "[4]", "value": "−89.8-−55%"}, {"measurement": "Avg. CFBL 24HC", "setting": "Eq. Dose 300 mg (N = 56), Mean", "value": "−82", "unit": "%"}, {"measurement": "Max. CFBL 24HC", "setting": "Eq. Dose 300 mg (N = 56), Mean", "value": "−82.1", "unit": "%"}, {"measurement": "Avg. CFBL 24HC", "setting": "[5]", "value": "−84", "unit": "%"}, {"measurement": "Max. CFBL 24HC", "setting": "[5]", "value": "−84.1", "unit": "%"}, {"measurement": "Avg. CFBL 24HC", "setting": "[6]", "value": "−90.9-−64.1%"}, {"measurement": "Max. CFBL 24HC", "setting": "[6]", "value": "−90.9-−64.4%"}, {"measurement": "Avg. Ch. f. BL. 24HC", "setting": "[7]", "value": "−67.38", "unit": "%"}, {"measurement": "Max. Red. f. BL. 24HC", "setting": "[7]", "value": "−67.65", "unit": "%"}, {"measurement": "Avg. Ch. f. BL. 24HC", "setting": "[8]", "value": "−70.08", "unit": "%"}, {"measurement": "Max. Red. f. BL. 24HC", "setting": "[8]", "value": "−70.39", "unit": "%"}, {"measurement": "Avg. Ch. f. BL. 24HC", "setting": "[9]", "value": "−86.70-−10.05%"}, {"measurement": "Max. Red. f. BL. 24HC", "setting": "[9]", "value": "−86.77-−10.19%"}, {"measurement": "Avg. Ch. f. BL. 24HC", "setting": "[10]", "value": "−76.77", "unit": "%"}, {"measurement": "Max. Red. f. BL. 24HC", "setting": "[10]", "value": "−76.97", "unit": "%"}, {"measurement": "Avg. Ch. f. BL. 24HC", "setting": "[11]", "value": "−80.21", "unit": "%"}, {"measurement": "Max. Red. f. BL. 24HC", "setting": "[11]", "value": "−80.37", "unit": "%"}, {"measurement": "Avg. Ch. f. BL. 24HC", "setting": "[12]", "value": "−89.03-−18.58%"}, {"measurement": "Max. Red. f. BL. 24HC", "setting": "[12]", "value": "−89.07-−18.80%"}, {"measurement": "Avg. Ch. f. BL. 24HC", "setting": "[13]", "value": "−79.95", "unit": "%"}, {"measurement": "Max. Red. f. BL. 24HC", "setting": "[13]", "value": "−80.11", "unit": "%"}, {"measurement": "Avg. Ch. f. BL. 24HC", "setting": "[14]", "value": "−82.50", "unit": "%"}, {"measurement": "Max. Red. f. BL. 24HC", "setting": "[14]", "value": "−82.65", "unit": "%"}, {"measurement": "Avg. Ch. f. BL. 24HC", "setting": "[15]", "value": "−89.98-−23.43%"}, {"measurement": "Max. Red. f. BL. 24HC", "setting": "[15]", "value": "−90.00-−23.69%"}]}]}
